Data on five molecules can be found in EP0908457B1, “3-(1,2-benzisothiazol- and isoxazol-5-Y1)-2,4(1H,3H)-pyrimidinedione or thione and 3-(1,2-benzisothiazol- and isoxazol-5-y1)-4(3H)-pyrimidinone or thione herbicidal agents” (BASF AKTIENGESELLSCHAFT, priority 1997, dated 1999).

Data set [1] has as its system Echinochloa oryzoides (Ard.) Fritsch. As to the kind of experiment: Preemergence weed control under flooded paddy conditions, ECHORC (Watergrass (Calif.)). On herbicidal effect rating, ECHORC: meaning of each grade not given here. The data set is classed as in vivo. Conditions: flooded paddy; for herbicidal effect rating, ECHORC: rated three to four weeks after treatment; for ECHORC: herbicidal effect rating 0-9, three to four weeks after treatment.

The next data set relates to Cyperus iria. As to the kind of experiment: Preemergence weed control under flooded paddy conditions, CYPIR (Rice Flatsedge). On herbicidal effect rating, CYPIR: meaning of each grade not given here. The settings on record: flooded paddy; for herbicidal effect rating, CYPIR: rated three to four weeks after treatment; for CYPIR: herbicidal effect rating 0-9, three to four weeks after treatment. The format is in vivo.
Data set [2] relates to Cyperus serotinus, Rottb. As to the kind of experiment: Preemergence weed control under flooded paddy conditions, CYPSE (Flatsedge). On herbicidal effect rating, CYPSE: meaning of each grade not given here. The data set is classed as in vivo. Conditions: for herbicidal effect rating, CYPSE: rated three to four weeks after treatment; for CYPSE: herbicidal effect rating 0-9, three to four weeks after treatment.
Data set [3] deals with Monochoria vaginalis, Presl. Description: Preemergence weed control under flooded paddy conditions, MOOVA (Monochoria). On herbicidal effect rating, MOOVA: meaning of each grade not given here. The data set is classed as in vivo. Conditions: flooded paddy; for herbicidal effect rating, MOOVA: rated three to four weeks after treatment; for MOOVA: herbicidal effect rating 0-9, three to four weeks after treatment.
The test system of a further data set is Sagittaria pygmaea, L. Description: Preemergence weed control under flooded paddy conditions, SAGPY (Arrowhead (Pygmaea)). On herbicidal effect rating, SAGPY: meaning of each grade not given here. The data set is classed as in vivo. Conditions: flooded paddy; for herbicidal effect rating, SAGPY: rated three to four weeks after treatment; for SAGPY: herbicidal effect rating 0-9, three to four weeks after treatment.
In data set [4] the test system is Oryza sativa, (L.) Tebonnet. Description: Rice tolerance to post-transplant applications under flooded paddy conditions (Example 187), ORYSAT (Rice, Tebonnet). Conditions: for herbicidal effect rating, ORYSAT (rice tolerance) / herbicidal effect rating ORYSAT: rated three to four weeks after treatment; for ORYSAT: herbicidal effect rating 0-9, three to four weeks after treatment.

[5] abbreviates: Rate 0.0320 kg/ha, preemergence.
Setting [6] is: Rate 0.0620 kg/ha, preemergence.
The mark [7] stands for this setting: Rate 0.1250 kg/ha, preemergence.
The mark [8] stands for this setting: Rate 0.2500 kg/ha, preemergence.
The mark [9] stands for this setting: Rate 0.0320 kg/ha, preemergence weeds.
Where [10] appears, read: Rate 0.0620 kg/ha, preemergence weeds.
Where [11] appears, read: Rate 0.1250 kg/ha, preemergence weeds.
[12] abbreviates: Rate 0.2500 kg/ha, preemergence weeds.
The mark [13] stands for this setting: 0.0320 kg/ha, preemergence weeds.
The mark [14] stands for this setting: 0.0620 kg/ha, preemergence weeds.
Setting [15] is: 0.1250 kg/ha, preemergence weeds.
The mark [16] stands for this setting: 0.2500 kg/ha, preemergence weeds.

The structures appear in SMILES notation.

Take `CCc1ccc(OC)c(-c2nsc3ccc(-n4c(=O)cc(C(F)(F)F)n(C)c4=O)cc23)c1` [Example 45, 3-[3-(5-Ethyl-2-methoxyphenyl)-1,2-benzisothiazol-5-yl]-1-methyl-6-(trifluoromethyl)-2,4(1H,3H)-pyrimidinedione]: the “herbicidal effect rating, ECHORC” value in data set [1] (0.0313 kg/ha, preemergence) turned out to be 9.0; in data set [1] (0.0625 kg/ha, preemergence), 9.0; in data set [1] (0.1250 kg/ha, preemergence), 9.0; in data set [1] (0.2500 kg/ha, preemergence), 9.0. Besides, the “herbicidal effect rating, CYPIR” value with Cyperus iria (0.0313 kg/ha, preemergence) worked out at 6.0; in the data set with Cyperus iria (0.0625 kg/ha, preemergence), 9.0; in the data set on Cyperus iria (0.1250 kg/ha, preemergence), 9.0; in the data set on Cyperus iria (0.2500 kg/ha, preemergence), 9.0. Moreover, the “herbicidal effect rating, CYPSE” value in data set [2] (0.0625 kg/ha, preemergence) was 2.0; in data set [2] (0.1250 kg/ha, preemergence), 9.0; in data set [2] (0.2500 kg/ha, preemergence) it was 9.0. The “herbicidal effect rating, MOOVA” value turned out to be 9.0 in data set [3] (0.0313 kg/ha, preemergence); 9.0 in data set [3] (0.0625 kg/ha, preemergence); 9.0 in data set [3] (0.1250 kg/ha, preemergence); 9.0 in data set [3] (0.2500 kg/ha, preemergence). For the same molecule, the “herbicidal effect rating, SAGPY” value in the data set with Sagittaria pygmaea, L. (0.0313 kg/ha, preemergence) is reported as 0.0; with Sagittaria pygmaea, L. (0.0625 kg/ha, preemergence) it was 0.0; with Sagittaria pygmaea, L. (0.1250 kg/ha, preemergence) it was 4.0; in the data set on Sagittaria pygmaea, L. (0.2500 kg/ha, preemergence), 6.0. In addition, the “herbicidal effect rating, ORYSAT (rice tolerance)” value turned out to be 2.0 in data set [4] (0.0313 kg/ha), 2.0 in data set [4] (0.0625 kg/ha), 3.0 in data set [4] (0.1250 kg/ha) and 3.0 in data set [4] (0.2500 kg/ha).

Take `Cn1c(C(F)(F)F)cc(=O)n(-c2ccc3snc(C(C#N)=Cc4ccccn4)c3c2)c1=O` [Example 592, 1,2-Benzisothiazole-3-acetonitrile, 5-[3,6-dihydro-3-methyl-2,6-dioxo-4-(trifluoromethyl)-1(2H)-pyrimidinyl]-alpha-(2-pyridylmethylene)-]: the “herbicidal effect rating, ECHORC” value in data set [1] (setting [5]) came out at 0.0; in data set [1] (setting [6]), 3.0; in data set [1] (setting [7]) it was 4.0; in data set [1] (setting [8]), 5.0. The “herbicidal effect rating, CYPIR” value with Cyperus iria (setting [5]) came to 2.0; in the data set on Cyperus iria (setting [6]) it was 3.0; in the data set on Cyperus iria (setting [7]) it was 4.0; in the data set on Cyperus iria (setting [8]), 6.0. Also, the “herbicidal effect rating, CYPSE” value in data set [2] (setting [5]) and in data set [2] (setting [7]) was 0.0 in each case. In addition, the “herbicidal effect rating, MOOVA” value in data set [3] (setting [5]) was 8.0; in data set [3] (setting [6]), 9.0; in data set [3] (setting [7]) it was 9.0; in data set [3] (setting [8]), 9.0. Besides, the “herbicidal effect rating, SAGPY” value came out at 0.0 in the data set on Sagittaria pygmaea, L. (setting [5]); 3.0 in the data set with Sagittaria pygmaea, L. (setting [6]); 3.0 with Sagittaria pygmaea, L. (setting [7]). In addition, the “herbicidal effect rating ORYSAT” value in data set [4] (Rate 0.0320 kg/ha) was determined as 2.0; in data set [4] (Rate 0.0620 kg/ha), 2.0; in data set [4] (Rate 0.1250 kg/ha), 4.0; in data set [4] (Rate 0.2500 kg/ha), 4.0.

`COC(=O)c1nsc2ccc(-n3c(=O)cc(C(F)(F)F)n(C)c3=O)cc12` [Example 318, 1,2-Benzisothiazole-3-carboxylic acid, 5-[3,6-dihydro-3-methyl-2,6-dioxo-4-(trifluoromethyl)-1(2H)-pyrimidinyl]-, methyl ester]: the “herbicidal effect rating, ECHORC” value was 0.0 in data set [1] (setting [9]), 3.0 in data set [1] (setting [10]), 5.0 in data set [1] (setting [11]) and 5.0 in data set [1] (setting [12]). Besides, the “herbicidal effect rating, CYPIR” value in the data set with Cyperus iria (setting [9]) stood at 0.0; in the data set with Cyperus iria (setting [10]) it was 2.0; in the data set with Cyperus iria (setting [11]), 5.0; in the data set on Cyperus iria (setting [12]) it was 6.0. The “herbicidal effect rating, CYPSE” value turned out to be 0.0 in data set [2] (setting [9]), 0.0 in data set [2] (setting [10]), 0.0 in data set [2] (setting [11]) and 9.0 in data set [2] (setting [12]). Besides, the “herbicidal effect rating, MOOVA” value came out at 4.0 in data set [3] (setting [9]), 6.0 in data set [3] (setting [10]), 9.0 in data set [3] (setting [11]) and 9.0 in data set [3] (setting [12]). Besides, the “herbicidal effect rating, SAGPY” value in the data set on Sagittaria pygmaea, L. (setting [9]) is listed as 0.0; in the data set with Sagittaria pygmaea, L. (setting [10]), 0.0; in the data set on Sagittaria pygmaea, L. (setting [11]) it was 0.0; in the data set with Sagittaria pygmaea, L. (setting [12]), 4.0. The “herbicidal effect rating ORYSAT” value in data set [4] (Rate 0.0320 kg/ha) is 5.0; in data set [4] (Rate 0.0620 kg/ha) it was 5.0; in data set [4] (Rate 0.1250 kg/ha), 5.0; in data set [4] (Rate 0.2500 kg/ha), 9.0.

Take `Cc1ccsc1C=C(C#N)c1nsc2ccc(-n3c(=O)cc(C(F)(F)F)n(C)c3=O)cc12` [Example 457, 1,2-Benzisothiazole-3-acetonitrile, 5-[3,6-dihydro-3-methyl-2,6-dioxo-4-(trifluoromethyl)-1(2H)-pyrimidinyl]-alpha-(3-methyl-2-thenylidene)-]: the ECHORC in data set [1] (setting [13]) was found to be 5.0; in data set [1] (setting [14]), 7.0; in data set [1] (setting [15]) it was 9.0; in data set [1] (setting [16]), 9.0. Moreover, the CYPIR in the data set with Cyperus iria (setting [13]) stood at 0.0; in the data set on Cyperus iria (setting [14]), 3.0; in the data set on Cyperus iria (setting [15]) it was 5.0; with Cyperus iria (setting [16]), 7.0. Also, the CYPSE in data set [2] (setting [13]), in data set [2] (setting [14]), in data set [2] (setting [15]) and in data set [2] (setting [16]) was 0.0 each time. For the same molecule, the MOOVA in data set [3] (setting [13]) came to 2.0; in data set [3] (setting [14]), 4.0; in data set [3] (setting [15]), 7.0; in data set [3] (setting [16]) it was 7.0. For the same molecule, the SAGPY was determined as 0.0 in the data set on Sagittaria pygmaea, L. (setting [13]); 0.0 in the data set with Sagittaria pygmaea, L. (setting [14]); 3.0 with Sagittaria pygmaea, L. (setting [15]); 3.0 in the data set on Sagittaria pygmaea, L. (setting [16]). Further, the ORYSAT in data set [4] (0.0320 kg/ha) amounted to 0.0; in data set [4] (0.0620 kg/ha) it was 0.0; in data set [4] (0.1250 kg/ha) it was 0.0; in data set [4] (0.2500 kg/ha) it was 3.0.

Regarding `Cc1noc2cc(F)c(-n3c(=O)cc(C(F)(F)F)n(C)c3=O)cc12` [Example 23, 3-(6-Fluoro-3-methyl-1,2-benzisoxazol-5-yl)-1-methyl-6-(trifluoromethyl)-2,4(1H,3H)-pyrimidinedione], the “herbicidal effect rating, ECHORC” value in data set [1] (0.0313 kg/ha, preemergence) is reported as 4.5; in data set [1] (0.0625 kg/ha, preemergence), 7.0; in data set [1] (0.1250 kg/ha, preemergence), 8.5; in data set [1] (0.2500 kg/ha, preemergence) it was 9.0. For the same molecule, the “herbicidal effect rating, CYPIR” value was determined as 7.0 in the data set on Cyperus iria (0.0313 kg/ha, preemergence); 9.0 with Cyperus iria (0.0625 kg/ha, preemergence); 9.0 in the data set with Cyperus iria (0.1250 kg/ha, preemergence); 9.0 in the data set with Cyperus iria (0.2500 kg/ha, preemergence). Further, the “herbicidal effect rating, CYPSE” value in data set [2] (0.0313 kg/ha, preemergence) was 4.0; in data set [2] (0.0625 kg/ha, preemergence), 7.0; in data set [2] (0.1250 kg/ha, preemergence), 8.0; in data set [2] (0.2500 kg/ha, preemergence), 9.0. Moreover, the “herbicidal effect rating, MOOVA” value is 9.0 in data set [3] (0.0313 kg/ha, preemergence); 9.0 in data set [3] (0.0625 kg/ha, preemergence); 9.0 in data set [3] (0.1250 kg/ha, preemergence); 9.0 in data set [3] (0.2500 kg/ha, preemergence). Moreover, the “herbicidal effect rating, SAGPY” value stood at 4.0 in the data set with Sagittaria pygmaea, L. (0.0313 kg/ha, preemergence); 6.0 with Sagittaria pygmaea, L. (0.0625 kg/ha, preemergence); 9.0 in the data set on Sagittaria pygmaea, L. (0.1250 kg/ha, preemergence); 9.0 in the data set on Sagittaria pygmaea, L. (0.2500 kg/ha, preemergence). In addition, the “herbicidal effect rating, ORYSAT (rice tolerance)” value in data set [4] (0.0313 kg/ha) was found to be 5.5; in data set [4] (0.0625 kg/ha) it was 6.5; in data set [4] (0.1250 kg/ha) it was 8.0; in data set [4] (0.2500 kg/ha) it was 8.5.
